Earlier results on 15 compounds are cited in Sander's compilation of Henry's law constants (doi:10.1093/bja/45.3.294).

Each structure is given as a SMILES string.

One series can be described thus: Henry solubility constant Hcp at 310 K (mol/(m3 Pa)). To be noted: reference: Allott et al. (1973); cited value.
As to `FC(F)OC(F)(F)C(F)Cl` (stereo not given) [2-chloro-1,1,2-trifluoroethyl difluoromethyl ether], the “Henry solubility constant Hcp at 310 K” value was 0.0003.

With `C=COC=C` [divinyl ether], the “Henry solubility constant Hcp at 310 K” value was 0.00054.

For `FC(F)OC(Cl)C(F)(F)F` (stereo not given) [1-chloro-2,2,2-trifluoroethyl difluoromethyl ether], the “Henry solubility constant Hcp at 310 K” value is 0.00024.

The next series in a line: Henry solubility constant Hcp at 298.15 K (mol/(m3 Pa)). As to conditions: reference: Allott et al. (1973); cited value.
Consider `FC(Br)C(F)(F)F` (stereo not given) [1-bromo-1,2,2,2-tetrafluoroethane], for which the “Henry solubility constant Hcp” value is 0.00017.

Turning to `FC(F)(F)C(Cl)Br` (stereo not given) [1-bromo-1-chloro-2,2,2-trifluoroethane], the “Henry solubility constant Hcp” value is 0.00053.

Take `[Kr]` [krypton]: the “Henry solubility constant Hcp” value is 2.5e-05.

With `C=COCC(F)(F)F` [(2,2,2-trifluoroethoxy)-ethene], the “Henry solubility constant Hcp” value was 0.00055.

`C=C` [ethene]: the “Henry solubility constant Hcp” value was 4.6e-05.

Turning to `ClC=C(Cl)Cl` [trichloroethene], the “Henry solubility constant Hcp” value was 0.0011.

With `CCOCC` [diethyl ether], the “Henry solubility constant Hcp” value is 0.0096.

`CCCl` [chloroethane]: the “Henry solubility constant Hcp” value was 0.00073.

With `[Xe]` [xenon], the “Henry solubility constant Hcp” value is 4.5e-05.

Take `COC(F)(F)C(Cl)Cl` [2,2-dichloro-1,1-difluoro-1-methoxyethane]: the “Henry solubility constant Hcp” value was 0.003.

Turning to `[N-]=[N+]=O` [dinitrogen monoxide], the “Henry solubility constant Hcp” value is 0.00025.

In the case of `C1CC1` [cyclopropane], the “Henry solubility constant Hcp” value is 0.00011.
